Source: the supplement of paper PMC11061612

Legend:
Assay in all cases: Bliss excess, mean over the matrix (fraction); higher = more synergy
[1] = system: SNU-61 (Colorectal Carcinoma)
Outline: (§1)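 Cell lines grown in DMEM/F12 or RPMI with 10% FBS were plated in 1536-well plates and held 24 hours at 37°C, 5% CO2 before 72 hours of exposure to two-drug dose matrices, with DMSO typically at 0.2%. CellTiter-Glo 2.0 luminescence gave viability, which was converted to inhibition. Vehicle wells were set to 0 and blank wells to 1. Combination Emax is the second-highest inhibition in the matrix, and Bliss excess is the observed combination effect minus the expected EA + EB − EA·EB, where EA and EB are the single-agent effects.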

[2] = system: CAL-39 (Other Solid Carcinomas)
Outline: as §1

[3] = system: GDM-1 (Acute Myeloid Leukemia)
Outline: as §1

[4] = system: MEG-01 (Chronic Myelogenous Leukemia)
Outline: as §1

[5] = system: NCI-H1688 (Small Cell Lung Carcinoma)
Outline: as §1

[6] = system: HCC1143 (Breast Carcinoma)
Outline: as §1

CS1 (Chondrosarcoma) = system: CS1 (Chondrosarcoma)
Outline: as §1

[7] = system: KG-1 (Acute Myeloid Leukemia)
Outline: as §1

[8] = system: ETK-1 (Biliary Tract Carcinoma)
Outline: as §1

MSTO-211H (Mesothelioma) = system: MSTO-211H (Mesothelioma)
Outline: as §1

[9] = system: SK-LMS-1 (Other Solid Carcinomas)
Outline: as §1

[10] = system: 647-V (Bladder Carcinoma)
Outline: as §1

Row | SMILES | Bliss excess [1] | Bliss excess [2] | Bliss excess [3] | Bliss excess [4] | Bliss excess [5] | Bliss excess [6] | Bliss excess (CS1 (Chondrosarcoma)) | Bliss excess [7] | Bliss excess [8] | Bliss excess (MSTO-211H (Mesothelioma)) | Bliss excess [9] | Bliss excess [10]
1 | CN(C)CCCOc1ccc(-c2ccc3ncc4c(c3c2)n(C2CCOCC2)c(=O)n4C)cn1 [AZD0156] + C=CCn1c(=O)c2cnc(Nc3ccc(N4CCN(C)CC4)cc3)nc2n1-c1cccc(C(C)(C)O)n1 [AZD1775] (first compound max 1 µM, partner max 1 µM) | -0.0277 | -0.0326 | -0.0566 | 0.0032 | -0.0033 | -0.0802 | -0.0392 | -0.0194 | -0.0096 | 0.0099 | -0.0203 | 0.0001
2 | CN(C)CCCOc1ccc(-c2ccc3ncc4c(c3c2)n(C2CCOCC2)c(=O)n4C)cn1 [AZD0156] + CCN(CCO)CCCOc1ccc2c(Nc3cc(CC(=O)Nc4cccc(F)c4)[nH]n3)ncnc2c1 [AZD2811] (first compound max 1 µM, 7x7, partner max 1 µM) | -0.0339 | 0.0177 | -0.0232 | -0.0347 | 0.0018 | 0.0372 | -0.0074 | -0.0001 | -0.0087 | -0.0098 | 0.0032 | 0.0365
3 | CN(C)CCCOc1ccc(-c2ccc3ncc4c(c3c2)n(C2CCOCC2)c(=O)n4C)cn1 [AZD0156] + C[C@@H]1COCCN1C2=NC(=NC(=C2)C3(CC3)[S@](=N)(=O)C)C4=C5C=CNC5=NC=C4 [AZD6738] (first compound max 1 µM, 7x7, partner max 10 µM) | -0.0047 | 0.0017 | -0.0439 | 0.0001 | -0.0004 | 0.0323 | 0.0088 | 0.128 | 0.0294 | 0.0418 | 0.0122 | 0.0039
4 | C=CCn1c(=O)c2cnc(Nc3ccc(N4CCN(C)CC4)cc3)nc2n1-c1cccc(C(C)(C)O)n1 [AZD1775] + C[C@@H]1COCCN1C2=NC(=NC(=C2)C3(CC3)[S@](=N)(=O)C)C4=C5C=CNC5=NC=C4 [AZD6738] (first compound max 1 µM, partner max 10 µM) | -0.051 | 0.0822 | 0.0041 | -0.0005 | 0.0326 | 0.0108 | 0.0087 | -0.0218 | 0.0427 | 0.0418 | 0.0039 | 0.0662
5 | C=CCn1c(=O)c2cnc(Nc3ccc(N4CCN(C)CC4)cc3)nc2n1-c1cccc(C(C)(C)O)n1 [AZD1775] + O=C(c1cc(Cc2n[nH]c(=O)c3ccccc23)ccc1F)N1CCN(C(=O)C2CC2)CC1 [Olaparib] (first compound max 1 µM, partner max 10 µM) | -0.0289 | -0.0223 | 0.0017 | -0.0188 | -0.0142 | -0.0675 | 0.0057 | -0.0195 | -0.0292 | -0.0203 | 0.0065 | 0.0046
6 | CCN(CCO)CCCOc1ccc2c(Nc3cc(CC(=O)Nc4cccc(F)c4)[nH]n3)ncnc2c1 [AZD2811] + C=CCn1c(=O)c2cnc(Nc3ccc(N4CCN(C)CC4)cc3)nc2n1-c1cccc(C(C)(C)O)n1 [AZD1775] (first compound max 1 µM, partner max 1 µM) | 0.0108 | -0.0078 | -0.0484 | -0.0323 | -0.006 | 0.0147 | 0.0264 | 0.0591 | 0.0395 | 0.0387 | 0.0502 | 0.0491
7 | CCN(CCO)CCCOc1ccc2c(Nc3cc(CC(=O)Nc4cccc(F)c4)[nH]n3)ncnc2c1 [AZD2811] + C[C@@H]1COCCN1C2=NC(=NC(=C2)C3(CC3)[S@](=N)(=O)C)C4=C5C=CNC5=NC=C4 [AZD6738] (first compound max 1 µM, 7x7, partner max 10 µM) | -0.0434 | 0.0015 | -0.0749 | -0.0203 | -0.0054 | -0.0291 | -0.0842 | -0.0332 | -0.0627 | -0.0279 | -0.0249 | 0.0177
8 | CCN(CCO)CCCOc1ccc2c(Nc3cc(CC(=O)Nc4cccc(F)c4)[nH]n3)ncnc2c1 [AZD2811] + O=C(c1cc(Cc2n[nH]c(=O)c3ccccc23)ccc1F)N1CCN(C(=O)C2CC2)CC1 [Olaparib] (first compound max 1 µM, 7x7, partner max 10 µM) | -0.0184 | 0.0017 | -0.0709 | -0.0628 | -0.0131 | 0.015 | -0.0515 | 0.0382 | 0.0049 | 0.0178 | 0.0076 | 0.0433
9 | CN(CCO)CC[C@H](CSc1ccccc1)Nc1ccc(S(=O)(=O)NC(=O)c2ccc(N3CCC([C@@H](O)c4ccccc4-c4ccc(Cl)cc4)CC3)cc2)cc1S(=O)(=O)C(F)(F)F [AZD4320] + C1CN(CCC1(C(=O)N[C@@H](CCO)C2=CC=C(C=C2)Cl)N)C3=NC=NC4=C3C=CN4 [Capivasertib] (first compound max 1 µM, 7x7, partner max 3 µM) | -0.038 | -0.0296 | -0.0206 | -0.0223 | -0.0173 | -0.0314 | -0.022 | 0.0226 | -0.0305 | -0.0162 | -0.0225 | 0.0056
